Test results reported in PMC3797749, “Functional Characterisation of the Maturation of the Blood-Brain Barrier in Larval Zebrafish” (PLoS ONE, 2013).

Tests used:
[1] = system: zebrafish larvae; test: in vivo; conditions: for Absorption (whole body) (% uptake): 15 µg/ml (5 µg/ml scopolamine) immersion 1 hour, tissue vs medium concentration; for drug level (LC/MS/MS): 5 µg/ml 1 hour
Method: (§1) Initial drug exposure assays were performed in larval zebrafish to identify a sufficiently high concentration of drug that could be detected by liquid chromatography/tandem mass spectrometry (LC/MS/MS) analysis without causing toxicity. Maximum tolerated concentration (MTC) was determined using n=6 larvae per group. […] Compounds of interest were prepared as 2 mg/ml stocks in dimethyl sulfoxide (DMSO). […] Larvae were incubated in the drug for 1 hour at room temperature then anaesthetised on ice. For whole uptake analysis, anaesthetised larvae were transferred to 1.5 ml microfuge tubes and all excess liquid was removed. 100 µl ice cold PBS was added, samples were briefly centrifuged and all excess liquid was removed. For brain versus body uptake analysis, larvae were anaesthetised by chilling prior to decapitation using fine iridectomy scissors and No. 5 watchmaker forceps. Head and body tissue samples were collected in separate microfuge tubes on ice and excess liquid removed. 100 µl ice cold PBS was added and samples were briefly centrifuged and all excess liquid removed. The weight of the tissue sample was measured and the samples were frozen at -20 °C prior to extraction for LC/MS/MS.
(§2) Test compound was added to the well containing 50 µg/ml verapamil and larvae were incubated for a further hour at room temperature prior to tissue collection as described. For subsequent LC/MS/MS analysis, tissue samples were thawed and after addition of an internal standard (clozapine) extracted into an organic solvent (tertiary-butyl methyl ether, t-bme). […] The analytes and internal standard were ionised under atmospheric pressure chemical ionisation (APCI) conditions operating in positive ion mode. Detection was via tandem mass spectrometry (MS/MS) using selected ion monitoring (SIM). All analyses were performed using a Finnigan LCQ quadrupole ion trap mass spectrometer.
(§3) A panel of 5 drugs known to either cross or not cross the BBB in mammals were selected to test in zebrafish larvae. Larvae of different ages were exposed to these compounds at non-toxic concentrations for 1 hour prior to collection of head and trunk tissue for analysis of drug concentration. A generic extraction method was developed and LC/MS/MS was performed to analyse the concentration of drug in head and trunk tissue in larvae of different ages. Drug/tissue concentrations were normalised against a standard and the relative amount of drug in head and trunk samples was compared to determine whether the drug distribution altered with larval age (Table 2).

[2] = in vivo; conditions: zebrafish, in vivo, immersion 1 hour
Method: as §1, §2, §3

[3] = system: zebrafish larvae; test: Dye exclusion experiments (pericardial injection, brain fluorescence quantification); type: in vivo
Method: Stocks of 2% Evans blue (961 Da) and 10% sodium fluorescein (376 Da) in 0.9% saline were prepared and stored at 4 °C. Larvae were anaesthetised by immersion in 0.2 mg/ml 3-amino benzoic acid (MS222) prior to being immobilised and positioned laterally in 3% methyl cellulose in embryo medium such that the heart was accessible. Larvae and juveniles from 2 days post-fertilisation (d.p.f.) to 30 d.p.f. were injected with 0.5 to 2 nl (depending on age) of dye or saline control into the pericardial region, using a standard zebrafish microinjection apparatus. Fish were transferred to fresh embryo medium to recover from anaesthesia, then viewed using a fluorescence dissecting microscope at 1 hour intervals to determine the time of uptake of the dye into the circulation and the time at which dye had permeated from the circulation into non-vascular body tissue. Representative images of dye distribution in vivo were taken on a Zeiss AxioZoom V16 microscope with Apotome. Dye and saline injected larvae were anaesthetised at 4 or 6 hours after injection and fixed in 4% paraformaldehyde in PBS. Ten larvae per age group and injection treatment were embedded in Sakura Tissue-Tek OCT (Bayer, Newbury, UK) and frozen parasagittal sections were cut at 10 µm thickness.
Sections were visualised without mounting medium by fluorescence microscopy on an Olympus BX51 microscope. Three midline sagittal sections from each larva were identified and images were captured using a ColorView camera (Olympus) and AnalySis software (Soft Imaging System). The fluorescence intensity within the brain was quantified for each midline section of each larva in each treatment group using colour threshold and area measurements in AnalySis. Mean values, standard deviations and Student’s t-tests were calculated using Excel software (Microsoft Office).
Rhodamine 123 (R123) was dissolved in 10% ethanol/0.9% saline to make a 0.5 mg/ml stock. […] Quantification of fluorescence in the brain was performed as described above.

[4] = known from mammals, no reference given; cited from earlier work
[5] = system: Abcb1/4/5; test: Rhodamine 123 dye exclusion in the presence of verapamil; type: in vivo, zebrafish; conditions: 8 d.p.f. and 10 d.p.f.; verapamil 50 µg/ml; 3 hours after injection
Method: Dye exclusion experiments on larvae at 3, 5, 8 and 10 d.p.f. were performed as described above using 0.2 nl R123. Some larvae were exposed to verapamil at 50 µg/ml for 2 hours prior to and during intrapericardial injection of R123 and for 3 hours after injection. At 3 hours after injection, larvae were anaesthetised and fixed in 4% PFA prior to processing for frozen sections. Quantification of fluorescence in the brain was performed as described above.

[6] = ref ChemIDplus; cited from earlier work
[7] = 15 µg/ml, Head concentration, 5 d.p.f.
[8] = 15 µg/ml, Head concentration, 8 d.p.f.
[9] = 15 µg/ml, Trunk concentration, 5 d.p.f.
[10] = 15 µg/ml, Trunk concentration, 8 d.p.f.
[11] = pericardial injection, brain fluorescence on frozen sections vs saline

Molecule: Clc1ccc2c(c1)CCc1cccnc1C2=C1CCNCC1 [Desloratadine]
- Absorption (whole body) (% uptake) ([1]; 5 d.p.f.): 14.8%
- Absorption (whole body) (% uptake) ([1]; 10 d.p.f.): 28.5%

Molecule: CN(C)CCOC(c1ccccc1)c1ccccc1 [Diphenhydramine]
- concentration at 1 h [2, 7]: 21600 ng/g
- concentration at 1 h [2, 8]: 31200 ng/g
- concentration at 1 h [2, 9]: 21100 ng/g
- concentration at 1 h [2, 10]: 24000 ng/g
- concentration at 1 h ([2]; Head concentration, 10 d.p.f.): 52800 ng/g
- concentration at 1 h ([2]; Trunk concentration, 10 d.p.f.): 54800 ng/g

Molecule: Cc1cc(-c2ccc(/N=N/c3ccc4c(S(=O)(=O)O)cc(S(=O)(=O)O)c(N)c4c3O)c(C)c2)ccc1/N=N/c1ccc2c(S(=O)(=O)O)cc(S(=O)(=O)O)c(N)c2c1O [Evans blue]
- larval age at which the injected dye is excluded from the brain ([3]; zebrafish, in vivo, 3 h): 5 d.p.f.

Molecule: O=C(CCCN1CCC(O)(c2ccc(Cl)cc2)CC1)c1ccc(F)cc1 [Haloperidol]
- amount of drug absorbed, larval tissue as % of the medium concentration ([1]; 1 hour exposure, lowest and highest value over drugs and ages): 949%
- Absorption (whole body) (% uptake) ([1]; 5 d.p.f.): 732.6%
- Absorption (whole body) (% uptake) ([1]; 8 d.p.f.): 949.5%
- Absorption (whole body) (% uptake) ([1]; 10 d.p.f.): 713.5%
- concentration at 1 h [2, 7]: 116000 ng/g
- concentration at 1 h [2, 8]: 136000 ng/g
- concentration at 1 h [2, 9]: 104000 ng/g
- concentration at 1 h [2, 10]: 149000 ng/g
- concentration at 1 h ([2]; Head concentration, 10 d.p.f.): 113000 ng/g
- concentration at 1 h ([2]; Trunk concentration, 10 d.p.f.): 101000 ng/g
- BBB penetration in mammals [4]: (penetrant)

Molecule: COC(=O)c1ccccc1-c1c2ccc(=N)cc-2oc2cc(N)ccc12 [Rhodamine 123]
- larval age at which the injected dye is excluded from the brain [3, 11]: 8 d.p.f.
- exclusion of R123 from the brain in the presence of verapamil [5]: failed to be excluded

Molecule: CN1[C@@H]2C[C@@H](OC(=O)[C@H](CO)c3ccccc3)C[C@H]1[C@@H]1O[C@@H]12 [Scopolamine]
- drug level (LC/MS/MS) ([1]; 5 d.p.f.): below the detection limits
- drug level (LC/MS/MS) ([1]; 8 d.p.f.): below the detection limits
- Head concentration ([1]; 10 d.p.f., immersion 1 hour): .65 µg/g
- Trunk concentration ([1]; 10 d.p.f., immersion 1 hour): .63 µg/g

Molecule: O=C([O-])c1ccccc1-c1c2ccc(=O)cc-2oc2cc([O-])ccc12.[Na+].[Na+] [Sodium fluorescein, sodium fluorescein]
- larval age at which the injected dye is excluded from the brain [3, 11]: 10 d.p.f.

Molecule: Scopolamine N-butyl bromide
- LogP [6]: -1.11
